The values below come from patent US12448382B2, “Heterocyclic compounds for mediating tyrosine kinase 2 activity” (GUANGZHOU INNOCARE PHARMA TECH CO., LTD., priority 2019, dated 2025).

Like-named read-outs stand apart in the source and are kept apart here.

Test [1] concerns the target T1, human recombinant TYK2 protein (Homo sapiens, UniProt P29597).
T1 construct: purchased Carna Biosciences 08-147
T1 sequence (P29597 871-1187 limits assumed): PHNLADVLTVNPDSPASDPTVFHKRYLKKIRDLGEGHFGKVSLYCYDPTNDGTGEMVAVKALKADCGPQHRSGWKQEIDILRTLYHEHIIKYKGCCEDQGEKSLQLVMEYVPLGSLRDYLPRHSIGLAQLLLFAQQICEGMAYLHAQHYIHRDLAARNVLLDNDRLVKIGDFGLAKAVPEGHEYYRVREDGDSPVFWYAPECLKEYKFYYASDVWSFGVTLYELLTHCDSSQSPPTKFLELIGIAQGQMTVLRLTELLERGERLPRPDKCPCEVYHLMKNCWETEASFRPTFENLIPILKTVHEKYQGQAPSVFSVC
Nature of the test: TYK2 Inhibition Assay (HTRF kinase assay). The settings on record: human recombinant TYK2, 11.25 μM ATP substrate solution. The test is classed as biochemical. An outline of the steps:
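Recombinant human TYK2 was pre-incubated 15 min at room temperature with compound, then reacted for 40 min with biotinylated tyrosine-kinase substrate and ATP (substrate solution 11.25 μM ATP, 0.5 μM substrate; 5 mM MgCl2, 0.01% Brij35). Phosphorylation was read by HTRF 665/620 ratio, normalised to no-enzyme and no-compound controls, and IC50 was fitted from 8 4-fold dilutions.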

The target of test [2] is T2, human recombinant JAK2 protein (Homo sapiens, UniProt O60674).
T2 construct: purchased Carna Biosciences 08-045
Description: JAK2 Inhibition Assay (HTRF kinase assay). The test is classed as biochemical. Particulars: human recombinant JAK2, 2.5 μM ATP substrate solution. In a few lines:
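Recombinant human JAK2 was preincubated 15 min at room temperature with compound in buffer containing 5 mM MgCl2, 1 mM DTT and 0.01% Brij35. Substrate solution (2.5 μM ATP, 0.25 μM biotinylated TK substrate) was then added for 30 min. Phosphorylation was detected by HTRF (665/620 nm ratio; no-enzyme = 100% inhibition), and IC50 was fitted from an 8-point, 4-fold series.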

For test [3], the system named is IL-12-induced IFN-γ secretion in NK92 cells. Description: Inhibition of IL-12-induced IFN-γ Secretion in NK92 Cells (ELISA). The test is classed as cell-based, human. The settings on record: 24 hours incubation, 8 concentration points, read-out: IC50 (NK92_IL12/IFNγ). An outline of the steps: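 NK92 cells (100,000/well, IL-2-free medium) rested overnight, then treated with compound plus IL-12 for 24 h at 37 °C. Secreted IFN-γ measured in supernatant by ELISA. Inhibition normalized to unstimulated and IL-12/0.2% DMSO controls; IC50 fitted from 8 concentrations.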
A general note: An ELISA detects its analyte on a solid surface through an enzyme-linked reagent.

T2 sequence (O60674 826-1132 limits assumed): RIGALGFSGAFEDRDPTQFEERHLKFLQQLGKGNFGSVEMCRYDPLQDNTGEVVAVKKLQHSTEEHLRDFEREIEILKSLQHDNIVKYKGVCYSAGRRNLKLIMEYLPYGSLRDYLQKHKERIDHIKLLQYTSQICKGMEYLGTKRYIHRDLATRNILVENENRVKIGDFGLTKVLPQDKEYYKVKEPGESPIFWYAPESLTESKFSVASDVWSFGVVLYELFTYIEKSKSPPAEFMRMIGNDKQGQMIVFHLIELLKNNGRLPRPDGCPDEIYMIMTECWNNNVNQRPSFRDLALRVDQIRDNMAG

Turning to `Cn1cc(Nc2ncc(Cl)c(N3C[C@]4(C)CN(C(=O)C5(C#N)CC5)C[C@]4(C)C3)n2)cn1` [Compound 42, 1-((3aR,6aS)-5-(5-chloro-2-((1-methyl-1H-pyrazol-4-yl)amino)pyrimidin-4-yl)-3a,6a-dimethyloctahydropyrrolo[3,4-c]pyrrole-2-carbonyl)cyclopropane-1-carbonitrile], the IC50 was found to be 5.7 nM in test [1], 20 nM in test [2] and 3.47 µM in test [3] (Homo sapiens).

In the case of `C[C@@]12CN(C(=O)C3CC3)C[C@]1(C)CN(c1nc(Nc3cc[nH]n3)ncc1Cl)C2` [Compound 95, ((3aR,6aS)-5-(2-((1H-pyrazol-3-yl)amino)-5-chloropyrimidin-4-yl)-3a,6a-dimethylhexahydropyrrolo-[3,4-c]pyrrol-2(1H)-yl)(cyclopropyl)methanone], the IC50 in test [1] was 42 nM; in test [2], 19 nM; in test [3] (Homo sapiens), 5.85 µM.

Take `CN1CCN(C(=O)c2ccc(Nc3ncc(Cl)c(N4C[C@]5(C)CN(C(=O)C6CC6)C[C@]5(C)C4)n3)cn2)CC1` [Compound 59, ((3aR,6aS)-5-(5-chloro-2-((6-(4-rnethylpiperazine-1-carbonyl)pyridin-3-yl)amino)pyrimidin-4-yl)-3a,6a-dimethylhexahydropyrrolo[3,4-c]pyrrol-2(1H)-yl)(cyclopropyl)methanone]: the IC50 came out at 5 nM in test [1], 5.1 nM in test [2] and 2.39 µM in test [3] (Homo sapiens).

Consider `Cn1cc(Nc2ncc(Cl)c(N3C[C@@]4(C)CN(CC#N)C(=O)[C@@]4(C)C3)n2)cn1` (racemic) [Compound 92, cis-2-(5-(5-Chloro-2-((1-methyl-1H-pyrazol-4-yl)amino)pyrimidin-4-yl)-3a,6a-dimethyl-1-oxohexahydropyrrolo[3,4-c]pyrrol-2(1H)-yl)acetonitrile], for which the results for the IC50 in test [1], in test [2] and in test [3] (Homo sapiens) were 1.1 nM, 4.1 nM and 0.398 µM, respectively.

For the molecule `Cn1cc(Nc2ncc(Cl)c(N3C[C@]4(C)CN(C(=O)c5ccccn5)C[C@]4(C)C3)n2)cn1` [Compound 47, ((3aR,6aS)-5-(5-chloro-2-((1-methyl-1H-pyrazol-4-yl)amino)pyrimidin-4-yl)-3a,6a-dimethylhexahydropyrrolo[3,4-c]pyrrol-2(1H)-yl)(pyridin-2-yl)methanone], the IC50 in test [1] came out at 13 nM; in test [2], 51 nM; in test [3] (Homo sapiens) it was 7.92 µM.

Turning to “3-((3aR,6aS)-3a,6a-dimethyl-5-5-methyl-2-((1-methyl-1H-pyrazol-4-yl)amino)pyrimidin-4-yl)hexahydropyrrolo[3,4-c]pyrrol-2(1H)-yl)-3-oxopropanenitrile [Compound 57]”, the IC50 was 2.3 nM in test [1], 3.2 nM in test [2] and 5.24 µM in test [3].

`C[C@@]12CN(C(=O)CC#N)C[C@]1(C)CN(c1nc(Nc3cnn(CCO)c3)ncc1Cl)C2` [Compound 31, 3-((3aR,6aS)-5-(5-chloro-2-((1-(2-hydroxyethyl)-1H-pyrazol-4-yl)amino)pyrimidin-4-yl)-3a,6a-dimethylhexahydropyrrolo[3,4-c]pyrrol-2(1H)-yl)-3-oxopropanenitrile]: the IC50 in test [1] is 0.5 nM; in test [2], 0.4 nM; in test [3] (Homo sapiens), 2.78 µM.

Take `Cn1cc(Nc2ncc(Cl)c(N3C[C@@H]4CN(S(C)(=O)=O)C[C@]4(C)C3)n2)cn1` (racemic) [Compound 61, cis-5-chloro-N-(1-methyl-1H-pyrazol-4-yl)-4-(3a-methyl-5-(methylsulfonyl)hexahydropyrrolo[3,4-c]pyrrol-2(1H)-yl)pyrimidin-2-amine]: the IC50 in test [1] is 1.6 nM; in test [2], 8.9 nM; in test [3] (Homo sapiens) it was 0.578 µM.

As to `Cn1cc(Nc2ncc(Cl)c(N3C[C@]4(C)CN(Cc5cc[nH]n5)C[C@]4(C)C3)n2)cn1` [Compound 81, 4-((3aR,6aS)-5-((1H-pyrazol-3-yl)methyl)-3a,6a-dimethylhexahydropyrrolo[3,4-c]pyrrol-2(1H)-yl)-5-chloro-N-(1-methyl-1H-pyrazol-4-yl)pyrimidin-2-amine], the IC50 in test [1] is 50 nM; in test [2] it was 16 nM; in test [3] (Homo sapiens) it was 3.97 µM.

`Cn1cc(Nc2ncc(Cl)c(N3C[C@H]4CN(C(=O)CC#N)C[C@@]4(C)C3)n2)cn1` [Compound 89, 3-((3aR,6aS)-5-(5-chloro-2-((1-methyl-1H-pyrazol-4-yl)amino)pyrimidin-4-yl)-3a-methylhexahydropyrrolo[3,4-c]pyrrol-2(1H)-yl)-3-oxopropanenitrile]: the figures for the IC50 in test [1], in test [2] and in test [3] (Homo sapiens) were 2.6 nM, 4.5 nM and 0.729 µM, respectively.

In the case of `Cn1cc(Nc2ncc(Cl)c(N3C[C@]4(C)CN(C(=O)CC(F)(F)F)C[C@]4(C)C3)n2)cn1` [Compound 48, 1-((3aR,6aS)-5-(5-chloro-2-((1-methyl-1H-pyrazol-4-yl)amino)pyrimidin-4-yl)-3a,6a-dimethylhexahydropyrrolo[3,4-c]pyrrol-2(1H)-yl)-3,3,3-trifluoropropan-1-one], the IC50 was found to be 0.7 nM in test [1], 2.5 nM in test [2] and 0.709 µM in test [3] (Homo sapiens).

With `Cc1cnc(Nc2cnn(C)c2)nc1N1C[C@@H]2CN(C(=O)C3CC3)C[C@]2(C)C1` (racemic) [Compound 70, cis-cyclopropyl(3a-methyl-5-(5-methyl-2-((1-methyl-1H-pyrazol-4-yl)amino)pyrimidin-4-yl)hexahydropyrrolo[3,4-c]pyrrol-2(1H)-yl)methanone], the results for the IC50 in test [1], in test [2] and in test [3] (Homo sapiens) were 5.3 nM, 17 nM and 1.2 µM, respectively.

With `Cc1cnc(Nc2cnn(C)c2)nc1N1C[C@@H]2CN(C(=O)CC#N)C[C@]2(C)C1` (racemic) [Compound 71, cis-3-(3a-methyl-5-(5-methyl-2-((1-methyl-1H-pyrazol-4-yl)amino)pyrimidin-4-yl)hexahydropyrrolo[3,4-c]pyrrol-2(1H)-yl)-3-oxopropanenitrile], the IC50 in test [1] was 1.2 nM; in test [2] it was 3.3 nM; in test [3] (Homo sapiens) it was 3.54 µM.

With `COCC(=O)N1C[C@@]2(C)CN(c3nc(Nc4cnn(C)c4)ncc3Cl)C[C@@]2(C)C1` [Compound 37, 1-((3aR,6aS)-5-(5-chloro-2-((1-methyl-1H-pyrazol-4-yl)amino)pyrimidin-4-yl)-3a,6a-dimethylhexahydropyrrolo[3,4-c]pyrrol-2(1H)-yl)-2-methoxyethan-1-one], the IC50 in test [1] stood at 12 nM; in test [2], 15 nM; in test [3] (Homo sapiens) it was 2.1 µM.

As for `Cn1cc(Nc2ncc(Cl)c(N3C[C@@H]4CN(C(=O)[C@@H]5CC5(F)F)C[C@]4(C)C3)n2)cn1` [Compound 90], the IC50 in test [1] amounted to 0.1 nM; in test [2], 0.6 nM; in test [3] (Homo sapiens), 0.096 µM.

`[2H]C([2H])([2H])n1cc(Nc2ncc(Cl)c(N3C[C@@H]4CN(C(=O)CC#N)C[C@]4(C)C3)n2)cn1` [Compound 99, 3-((3aS,6aR)-5-(5-chloro-2-((1-(methyl-d3)-1H-pyrazol-4-yl)amino)pyrimidin-4-yl)-3a-methylhexahydropyrrolo[3,4-c]pyrrol-2(1H)-yl)-3-oxopropanenitrile]: the IC50 in test [1] stood at 0.1 nM; in test [2], 0.5 nM; in test [3] (Homo sapiens) it was 0.158 µM.

As to `C[C@@]12CN(C(=O)CC#N)C[C@]1(C)CN(c1nc(Nc3cn[nH]c3)ncc1Cl)C2` [Compound 28, 3-((3aR,6aS)-5-(2-((1H-pyrazol-4-yl)amino)-5-chloropyrimidin-4-yl)-3a,6a-dimethylhexahydropyrrolo[3,4-c]pyrrol-2(1H)-yl)-3-oxopropanenitrile], the IC50 was 0.2 nM in test [1], 0.4 nM in test [2] and 2.21 µM in test [3] (Homo sapiens).

As for “cyclopropyl((3aR,6aS)-3a,6a-dimethyl-5-(5-methyl-2((1-methyl-1H-pyrazol-4-yl)amino)pyriraidin-4-yl)hexahydropyrrolo[3,4-c]pyrrol-2(1H)-yl)methanone [Compound 24]”, the IC50 is 4.1 nM in test [1], 20 nM in test [2] and 1.07 µM in test [3].

On to `Cc1cnc(Nc2cnn(C)c2)nc1N1C[C@]2(C)CN(C(=O)CC(F)(F)F)C[C@]2(C)C1` [Compound 60, 1-((3aR.,6aS)-3a,6a-dimethyl-5-(5-methyl-2-((1-methyl-1H-pyrazol-4-yl)amino)pyrimidin-4-yl)hexahydropyrrolo[3,4-c]pyrrol-2(1H)-yl)-3,3,3-trifluoropropan-1-one], for which the IC50 is 2.2 nM in test [1], 5.9 nM in test [2] and 1.38 µM in test [3] (Homo sapiens).
